Reference: US10179771B2 (GALAPAGOS NV, priority 2014, dated 2019)

How the values were obtained:
[1] = molecular target: T1, Recombinant human JAK3 catalytic domain (Homo sapiens, UniProt P52333); experiment: JAK3 inhibition assay; assay type: biochemical; settings: Illustrative Compounds of the invention (Table IX)
T1 construct: Recombinant human JAK3 catalytic domain (amino acids 781-1124; catalog number PV3855); purchased Invitrogen PV3855
Procedure: Recombinant human JAK3 catalytic domain (amino acids 781-1124; catalog number PV3855) was purchased from Invitrogen. 0.5 ng JAK3 protein was incubated with 2.5 μg polyGT substrate (Sigma catalog number P0275) in kinase reaction buffer (25 mM Tris pH 7.5, 0.5 mM EGTA, 10 mM MgCl2, 2.5 mM DTT, 0.5 mM Na3VO4, 5 mM b-glycerolphosphate, 0.01% Triton X-100, 1 μM non-radioactive ATP, […] ^33P-gamma-ATP (GE Healthcare, catalog number AH9968) final concentrations) with or without 5 μL containing test compound or vehicle (DMSO, 1% final concentration), in a total volume of 25 μL, in a polypropylene 96-well plate (Greiner, V-bottom). After 45 min at 30° C., reactions were stopped by adding 25 μL/well of 150 mM phosphoric acid. All of the terminated kinase reaction was transferred to prewashed (75 mM phosphoric acid) 96 well filter plates (Perkin Elmer catalog number 6005177) using a cell harvester (Perkin Elmer). Plates were washed 6 times with 300 μL per well of a 75 mM phosphoric acid solution and the bottom of the plates was sealed. 40 μL/well of Microscint-20 was added, the top of the plates was sealed and readout was performed using the Topcount (Perkin Elmer). Kinase activity was calculated by subtracting counts per min (cpm) obtained in the presence of a positive control inhibitor (10 μM staurosporine) from cpm obtained in the presence of vehicle. The ability of a test compound to inhibit this activity was determined as:
(§1) [formula] • RFU test compound=RFU determined for sample with test compound present • RFU control=RFU determined for sample with positive control inhibitor • RFU vehicle=RFU determined in the presence of vehicle
Dose dilution series were prepared for the compounds enabling the testing of dose-response effects in the JAK3 assay and the calculation of the IC50 for each compound. Each compound was routinely tested at concentration of 20 μM followed by a 1/5 serial dilution, 10 points in a final concentration of 1% DMSO. When potency of compound series increased, more dilutions were prepared and/or the top concentration was lowered (e.g. 5 μM, 1 μM).

[2] = molecular target: T2, Recombinant human JAK2 catalytic domain (Homo sapiens, UniProt O60674); experiment: JAK2 inhibition assay (polyGT substrate / Ulight-JAK1 peptide assay); assay type: biochemical; settings: Illustrative Compounds of the invention (Table VII)
T2 construct: Recombinant human JAK2 catalytic domain (amino acids 808-1132; catalog number PV4210); GST; purchased Invitrogen PV4210
Procedure: Recombinant human JAK2 catalytic domain (amino acids 808-1132; catalog number PV4210) was purchased from Invitrogen. 0.025 mU of JAK2 is incubated with […] polyGT substrate (Sigma catalog number P0275) in kinase reaction buffer (5 mM MOPS pH 7.5, 9 mM MgAc, 0.3 mM EDTA, 0.06% Brij and 0.6 mM DTT, 1 μM non-radioactive ATP, 0.25 μCi ^33P-gamma-ATP (GE Healthcare, catalog number AH9968) final concentrations) with or without 5 μL containing test compound or vehicle (DMSO, 1% final concentration), in a total volume of 25 μL, in a polypropylene 96-well plate (Greiner, V-bottom). After 90 min at 30° C., reactions are stopped by adding of 25 μL/well of 150 mM phosphoric acid. All of the terminated kinase reaction is transferred to prewashed (75 mM phosphoric acid) 96 well filter plates (Perkin Elmer catalog number 6005177) using a cell harvester (Perkin Elmer). Plates are washed 6 times with 300 μL per well of a 75 mM phosphoric acid solution and the bottom of the plates is sealed. 40 μL/well of Microscint-20 is added, the top of the plates is sealed and readout is performed using the Topcount (Perkin Elmer). Kinase activity is calculated by subtracting counts per min (cpm) obtained in the presence of a positive control inhibitor (10 μM staurosporine) from cpm obtained in the presence of vehicle. The ability of a test compound to inhibit this activity is determined as:
as §1
Dose dilution series are prepared for the compounds enabling the testing of dose-response effects in the JAK2 assay and the calculation of the IC50 for each compound. Each compound is routinely tested at concentration of 20 μM followed by a 1/3 serial dilution, 8 points (20 μM-6.67 μM-2.22 μM-740 nM-247 nM-82 nM-27 nM-9 nM) in a final concentration of 1% DMSO. When potency of compound series increased, more dilutions are prepared and/or the top concentration is lowered (e.g. 5 μM, 1 μM).
Recombinant human JAK2 (catalytic domain, amino acids 866-1154; catalog number PV4210) was purchased from Invitrogen. 0.0125 mU of JAK2 was incubated with 25 nM Ulight-JAK1 (tyr1023) peptide (Perkin Elmer catalog number TRF0121) in kinase reaction buffer (25 mM HEPES pH7.0, 0.01% Triton X-100, 7.5 mM MgCl2, 2 mM DTT, 7.5 μM ATP) with or without 4 μL containing test compound or vehicle (DMSO, 1% final concentration), in a total volume of 20 μL, in a white 384 Opti plate (Perkin Elmer, catalog number 6007290). After 60 min at room temperature, reactions were stopped by adding 20 μL/well of detection mixture (1× detection buffer (Perkin Elmer, catalog number CR97-100C), 0.5 nM Europium-anti-phosphotyrosine (PT66) (Perkin Elmer, catalog number AD0068), 10 mM EDTA). Readout is performed using the Envision with excitation at 320 nm and measuring emission at 615 nm (Perkin Elmer). Kinase activity was calculated by subtracting relative fluorescence units (RFU) obtained in the presence of a positive control inhibitor (10 μM staurosporine) from RFU obtained in the presence of vehicle. The ability of a test compound to inhibit this activity was determined as: Percentage inhibition=((RFU determined for sample with test compound present−RFU determined for sample with positive control inhibitor) divided by (RFU determined in the presence of vehicle−RFU determined for sample with positive control inhibitor))*100.
Dose dilution series are prepared for compound enabling the testing of dose-response effects in the JAK2 assay and the calculation of the IC50 for the compound. Each compound is routinely tested at concentration of 20 μM followed by a 1/5 serial dilution, 10 points in a final concentration of 1% DMSO. When potency of compound series increases, more dilutions are prepared and/or the top concentration are lowered (e.g. 5 μM, 1 μM). […]

T1 sequence (P52333 781-1124): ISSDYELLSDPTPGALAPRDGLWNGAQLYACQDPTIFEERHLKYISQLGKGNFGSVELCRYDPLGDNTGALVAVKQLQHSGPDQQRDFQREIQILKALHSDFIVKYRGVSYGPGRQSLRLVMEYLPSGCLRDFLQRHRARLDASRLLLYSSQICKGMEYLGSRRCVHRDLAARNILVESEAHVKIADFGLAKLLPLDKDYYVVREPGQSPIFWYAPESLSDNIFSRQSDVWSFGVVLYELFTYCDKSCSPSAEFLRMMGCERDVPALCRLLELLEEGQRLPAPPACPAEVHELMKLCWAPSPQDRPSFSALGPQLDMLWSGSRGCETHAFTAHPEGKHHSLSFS
T2 sequence (O60674 808-1132): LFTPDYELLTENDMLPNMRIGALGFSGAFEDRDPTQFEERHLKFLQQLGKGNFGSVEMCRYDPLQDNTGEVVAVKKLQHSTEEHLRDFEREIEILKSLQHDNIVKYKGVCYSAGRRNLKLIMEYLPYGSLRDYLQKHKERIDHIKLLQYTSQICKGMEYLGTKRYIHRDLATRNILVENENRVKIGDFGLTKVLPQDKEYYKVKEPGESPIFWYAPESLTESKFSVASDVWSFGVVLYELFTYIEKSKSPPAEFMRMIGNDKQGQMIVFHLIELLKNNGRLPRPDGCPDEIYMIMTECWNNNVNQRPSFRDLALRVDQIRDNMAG

SMILES | IC50 [1] [nM] | IC50 [2] [nM]
CCc1cc(S(C)(=O)=O)ncc1N(C)c1cc(NC(=O)C2CC2)c2ncn(C)c2c1 [Cpd 18, N-[6-[(4-ethyl-6-methylsulfonyl-3-pyridyl)-methyl-amino]-1-methyl-benzimidazol-4-yl]cyclopropanecarboxamide] | 100 to 500 | 0.1 to 50
Cc1cc(S(C)(=O)=O)cc(F)c1N(C)c1cc(NC(=O)C2CC2)c2ncn(C)c2c1 [Cpd 19, N-[6-(2-fluoro-N,6-dimethyl-4-methylsulfonyl-anilino)-1-methyl-benzimidazol-4-yl]cyclopropanecarboxamide] | 50 to 100 | 0.1 to 50
Cc1cc(C#N)ncc1Oc1cc(NC(=O)[C@H]2C[C@H]2F)c2ncn(C)c2c1 [Cpd 20, (1R,2R)-N-[6-[(6-cyano-4-methyl-3-pyridyl)oxy]-1-methyl-benzimidazol-4-yl]-2-fluoro-cyclopropanecarboxamide] | > 500 | 50 to 100
Cc1cc(C#N)nc(F)c1N(C)c1cc(NC(=O)[C@H]2C[C@H]2F)c2ncn(C)c2c1 [Cpd 21, (1R,2R)-N-[6-[(6-cyano-2-fluoro-4-methyl-3-pyridyl)-methyl-amino]-1-methyl-benzimidazol-4-yl]-2-fluoro-cyclopropanecarboxamide] | 50 to 100 | 0.1 to 50
Cc1cnc(C#N)c(F)c1N(C)c1cc(NC(=O)[C@H]2C[C@H]2F)c2ncn(C)c2c1 [Cpd 22, (1R,2R)-N-[6-[(2-cyano-3-fluoro-5-methyl-4-pyridyl)-methyl-amino]-1-methyl-benzimidazol-4-yl]-2-fluoro-cyclopropanecarboxamide] | 100 to 500 | 0.1 to 50
Cc1cc(C#N)ncc1Oc1cc(NC(=O)C2CC2)c2ncn(C)c2c1 [Cpd 23, N-[6-[(6-cyano-4-methyl-3-pyridyl)oxy]-1-methyl-benzimidazol-4-yl]cyclopropanecarboxamide] | > 500 | 50 to 100
CCc1cc(C(N)=O)ncc1N(C)c1cc(NC(=O)C2CC2)c2ncn(C)c2c1 [Cpd 24, 5-((4-(cyclopropanecarboxamido)-1-methyl-1H-benzo[d]imidazol-6-yl)(methyl)amino)-4-ethylpicolinamide] | 100 to 500 | 0.1 to 50
CCc1cc(C(N)=O)ncc1N(C)c1cc(NC(=O)[C@H]2C[C@H]2F)c2ncn(C)c2c1 [Cpd 25, 4-ethyl-5-((4-((1R,2R)-2-fluorocyclopropanecarboxamido)-1-methyl-1H-benzo[d]imidazol-6-yl)(methyl)amino)picolinamide] | 100 to 500 | 0.1 to 50
Cc1cc(S(C)(=O)=O)ccc1N(C)c1cc(NC(=O)[C@H]2C[C@H]2F)c2ncn(C)c2c1 [Cpd 26, (1R,2R)-N-[6-(N,2-dimethyl-4-methylsulfonyl-anilino)-1-methyl-benzimidazol-4-yl]-2-fluoro-cyclopropanecarboxamide] | 100 to 500 | 50 to 100
CCS(=O)(=O)c1ccc(N(C)c2cc(NC(=O)[C@H]3C[C@H]3F)c3ncn(C)c3c2)c(C)c1 [Cpd 27, (1R,2R)-N-[6-(4-ethylsulfonyl-N,2-dimethyl-anilino)-1-methyl-benzimidazol-4-yl]-2-fluoro-cyclopropanecarboxamide] | 100 to 500 | 100 to 500
Cc1cc(C#N)ncc1Oc1cc(N)c2ncn(C)c2c1 [Cpd 28, 5-(7-amino-3-methyl-benzimidazol-5-yl)oxy-4-methyl-pyridine-2-carbonitrile] | > 500 | > 500
CCc1cc(S(C)(=O)=O)ncc1Oc1cc(NC(=O)C2CC2)c2ncn(C)c2c1 [Cpd 29, N-[6-[(4-ethyl-6-methylsulfonyl-3-pyridyl)oxy]-1-methyl-benzimidazol-4-yl]cyclopropanecarboxamide] | > 500 | 100 to 500
Cc1cc(C(N)=O)ncc1Oc1cc(NC(=O)[C@H]2C[C@H]2F)c2ncn(C)c2c1 [Cpd 32, 5-[7-[[(1R,2R)-2-fluorocyclopropanecarbonyl]amino]-3-methyl-benzimidazol-5-yl]oxy-4-methyl-pyridine-2-carboxamide] | > 500 | 50 to 100
